The target of data set [1] is T1, granzyme B (Human lymphocytes) (Homo sapiens, UniProt P10144).
T1 construct: Matrigel Mouse Model of Active and Pro-Form Granzyme B; purchased Enzo Life Sciences; host or cells: human lymphocytes
Put plainly: In vivo PET/CT imaging of ^18F-granzyme B tracers in a Matrigel mouse model of active and pro-form granzyme B. The note with it: female nude athymic mice with granzyme B/Matrigel implants, iv ^18F-radiotracer, PET 75-minutes post-injection. On the procedure: Female nude athymic (5-6 weeks, 15-30 g) mice were purchased from Jackson Laboratories. Both granzyme B (Human lymphocytes, Enzo Life Sciences) and inactivated human pro-form granzyme B (R&D Systems) were also commercially purchased. […] Each granzyme B enzyme was then brought up to a final concentration of 0.05 μg/ul using phosphate buffered saline (GE, Hyclone). Matrigel (65 μl, Corning) was mixed with 15 μl of 0.75 μg of each granzyme B enzyme (granzyme B and pro-form granzyme B) within each Eppendorf tube. The mice were then anesthetized with 2.5-3% isoflurane mixed with oxygen. Approximately 60-80 μl of granzyme B/Matrigel or the pro-form granzyme B/Matrigel were then injected using a 28-gauge X 0.5-inch insulin syringe (Terumo) to form implants on the right and left shoulder flanks of the mice. Approximately five minutes later, the mice were administered the ^18F-radiotracer via a bolus intravenous injection (approximately 150 μCi in a total volume of 100 ul saline plus an additional ˜25 ul saline to flush the catheter line). After the radiotracer injection, the catheter was removed and measured for any remaining residual radioactivity. The mice were then placed back in their cage for recovery. A nanoScan® PET/CT (Mediso, Hungary) was used for micro-PET/CT imaging in which 15-minute static PET scans were conducted 75-minutes post-injection of the radiotracer. Tera-Tomo™ 3D PET iterative reconstruction along with scatter correction were then conducted post-acquisition. A short high-resolution computed tomography (CT) scan was also performed immediately after to allow for anatomical registration. PET signal in the granzyme B implants were quantified by manually drawing regions of interest (ROIs) over the Matrigel implants based on the fused PET/CT images and the corresponding activity values were determined with VivoQuant (Invicro, Massachusetts). All values were represented as % injected dose per gram (% ID/g). Target to background ratios (TBR's) were then calculated by dividing the granzyme B % ID/g value by the pro-form granzyme B % ID/g value. PET imaging timepoints and granzyme B concentrations used in these experiments were determined in previous studies (data not shown).

Data set [2] is described as follows: Radioactive metabolite screening in male CD-1 mouse urine by radiometric HPLC. Type of data set: in vivo, male CD-1 mice. The conditions noted are these: for 60 minutes (% parent in urine): male CD-1 mouse urine, 60 minutes post tail vein injection, n=3; for radiometabolites in urine: mice, urine at 60 min post dose. On the procedure: Radioactive metabolite screening studies were performed by injection of [18F] granzyme B tracers in male CD-1 mice followed by analysis of urine samples at 60 minutes by radiometric HPLC.
Briefly, male CD-1 mice were anesthetized prior to dosing with approximately 250 μCi [^18F] granzyme B tracer via tail vein injection (n=3 mice). Urine samples were collected at the 60 minutes post-injection following anesthesia and cervical dislocation. Samples were diluted 100-fold in water prior to injection by HPLC.
Diluted samples were then analyzed on an Agilent 1290 series UPLC UV coupled with a BGO coincidence detector. The HPLC method utilized either 1) Phenomenex Kinetex EVO C18 (150×2.1 mm, 1.7 micron); 100 μL injection volume; flow-rate: 0.5 mL/min; solvent for A: 0.1% formic acid in water; solvent for B: 100% acetonitrile; gradient: initial hold at 5% B hold for 1 min, 5% to 40% in 7 min, hold 40% B for 2 min, increase from 40% to 95% B in 1 min, hold 95% B for 2 min, and then return to 5% B to reequilibrate, or 2) Phenomenex Monolithic C18 (100×4.6 mm); 100 μL injection volume; flow-rate: 1.2 mL/min; solvent for A: 20 mM ammonium acetate in water; solvent for B: 100% methanol; gradient: same as above.

Numbered stars: 1 amine (or outer) side, 2 acyl side, 3 side chain; on linkers, the order of the positions; unused ones are H or OH. Square brackets hold non-standard residues; d marks the D form. Peptide text beside a SMILES is read from it. * marks the point of attachment. X2 = O=C1CN2CCN(CCN(CC3CCN(CC(=O)*)CC3)CC2)CC(=O)[O][Al]([F])[O]1; NOTA(AlF) = O=C1CN2CCN(CCN(CC(=O)*)CC2)CC(=O)[O][Al]([F])[O]1; Haic = O=C1[C@@H](N[*:1])CCc2cccc3c2N1[C@H](C(=O)[*:2])C3; NH(5-HO-2-oxo-oxolan-4-yl) = O=C1CC(N*)C(O)O1; X1 = O=C(CN1CCN([*:1])CC1)[*:2]

T1 sequence (P10144 21-247): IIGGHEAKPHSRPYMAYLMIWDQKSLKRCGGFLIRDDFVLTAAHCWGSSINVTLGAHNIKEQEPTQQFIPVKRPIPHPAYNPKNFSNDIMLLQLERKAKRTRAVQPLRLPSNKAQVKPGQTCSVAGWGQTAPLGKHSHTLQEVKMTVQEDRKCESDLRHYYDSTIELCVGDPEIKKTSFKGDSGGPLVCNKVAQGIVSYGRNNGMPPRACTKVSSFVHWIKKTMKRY

As to `CC[C@H](C)[C@H](NC(=O)CNC(=O)CNC(=O)[C@H](CCC(=O)O)NC(=O)CN1CCC(CN2CCN3CCN(CC2)CC(=O)[O][Al]([F])[O]C(=O)C3)CC1)C(=O)N[C@H]1CCc2cccc3c2N(C1=O)[C@H](C(=O)NC1CC(=O)OC1O)C3` (stereo partly shown) [18F-2-Al] (X2-EGGI[Haic]-{NH(5-HO-2-oxo-oxolan-4-yl)}), the “in vivo imaging activity” value in data set [1] is on record as “good imaging activity”.

For `CC[C@H](C)[C@H](NC(=O)CNC(=O)CNC(=O)[C@H](CCC(=O)O)NC(=O)CN1CCN(C(=O)CN2CCN3CCN(CC2)CC(=O)[O][Al]([F])[O]C(=O)C3)CC1)C(=O)N[C@H]1CCc2cccc3c2N(C1=O)[C@H](C(=O)NC1CC(=O)OC1O)C3` (stereo partly shown) [18F-8-Al] ({NOTA(AlF)}-[X1]EGGI[Haic]-{NH(5-HO-2-oxo-oxolan-4-yl)}), the “in vivo imaging activity” value in data set [1] is “good imaging activity”.

As to `CC[C@H](C)[C@H](NC(=O)CCNC(=O)CCNC(=O)CN(CC(=O)O)C(=O)CN1CCN(C(=O)CN2CCN3CCN(CC2)CC(=O)[O][Al]([F])[O]C(=O)C3)CC1)C(=O)N[C@H]1CCc2cccc3c2N(C1=O)[C@H](C(=O)NC1CC(=O)OC1O)C3` (stereo partly shown) [Compound ^18F-13-Al], the “in vivo imaging activity” value in data set [1] is “good imaging activity”.

Turning to `CC[C@H](C)[C@H](NC(=O)CCNC(=O)CN(CC(=O)O)C(=O)CCNC(=O)CN1CCC(CN2CCN3CCN(CC2)CC(=O)[O][Al]([F])[O]C(=O)C3)CC1)C(=O)N[C@H]1CCc2cccc3c2N(C1=O)[C@H](C(=O)NC1CC(=O)OC1O)C3` (stereo partly shown) [Compound ^18F-3-Al], the “in vivo imaging activity” value in data set [1] is “good imaging activity”. For the same compound, in data set [2], the “60 minutes (% parent in urine)” value came out at 100% and the radiometabolites in urine result is listed as “no radiometabolites were observed”.

On to `CC[C@H](C)[C@H](NC(=O)CCNC(=O)CCNC(=O)CN(CC(=O)O)C(=O)CN1CCC(CN2CCN3CCN(CC2)CC(=O)[O][Al]([F])[O]C(=O)C3)CC1)C(=O)N[C@H]1CCc2cccc3c2N(C1=O)[C@H](C(=O)NC1CC(=O)OC1O)C3` (stereo partly shown) [18F-5-Al], for which the “60 minutes (% parent in urine)” value in data set [2] was determined as 100%.

Take `CC[C@H](C)[C@H](NC(=O)COCCNC(=O)[C@@H](CCC(=O)O)NC(=O)[C@@H](CCC(=O)O)NC(=O)CN1CCN(C(=O)CN2CCN3CCN(CC2)CC(=O)[O][Al]([F])[O]C(=O)C3)CC1)C(=O)N[C@H]1CCc2cccc3c2N(C1=O)[C@H](C(=O)NC1CC(=O)OC1O)C3` (stereo partly shown) [Compound ^18F-10-Al]: the “in vivo imaging activity” value in data set [1] is “good imaging activity”.

On to `CC[C@H](C)[C@H](NC(=O)CCNC(=O)CCNC(=O)[C@@H](CCC(=O)O)NC(=O)CN1CCN(C(=O)CN2CCN3CCN(CC2)CC(=O)[O][Al]([F])[O]C(=O)C3)CC1)C(=O)N[C@H]1CCc2cccc3c2N(C1=O)[C@H](C(=O)NC1CC(=O)OC1O)C3` (stereo partly shown) [Compound ^18F-12-Al], for which, in data set [1], the “in vivo imaging activity” value is “good imaging activity”.

Turning to `CC[C@H](C)[C@H](NC(=O)CCNC(=O)CC[C@H](NC(=O)CN1CCC(CN2CCN3CCN(CC2)CC(=O)[O][Al]([F])[O]C(=O)C3)CC1)C(=O)O)C(=O)N[C@H]1CCc2cccc3c2N(C1=O)[C@H](C(=O)NC1CC(=O)OC1O)C3` (stereo partly shown) [18F-6-Al], the “60 minutes (% parent in urine)” value in data set [2] is 66.3%.

Turning to `CC[C@H](C)[C@H](NC(=O)CCNC(=O)CCNC(=O)[C@@H](CCC(=O)O)NC(=O)CN1CCC(CN2CCN3CCN(CC2)CC(=O)[O][Al]([F])[O]C(=O)C3)CC1)C(=O)N[C@H]1CCc2cccc3c2N(C1=O)[C@H](C(=O)NC1CC(=O)OC1O)C3` (stereo partly shown) [Compound ^18F-1-Al], the “in vivo imaging activity” value in data set [1] is on record as “good imaging activity”. For the same compound, in data set [2], the “60 minutes (% parent in urine)” value came out at 100% and the radiometabolites in urine entry is given as “no radiometabolites were observed”.

Turning to `CC[C@H](C)[C@H](NC(=O)COCCNC(=O)[C@@H](CCC(=O)O)NC(=O)[C@@H](CCC(=O)O)NC(=O)CN1CCC(CN2CCN3CCN(CC2)CC(=O)[O][Al]([F])[O]C(=O)C3)CC1)C(=O)N[C@H]1CCc2cccc3c2N(C1=O)[C@H](C(=O)NC1CC(=O)OC1O)C3` (stereo partly shown) [Compound ^18F-4-Al], the “in vivo imaging activity” value in data set [1] was “good imaging activity”. Also, in data set [2], the “60 minutes (% parent in urine)” value is given as 100% and the radiometabolites in urine entry is “no radiometabolites were observed”.

The values above are taken from patent US20260158177A1, “COMPOUNDS SPECIFIC TO GRANZYME B AND USES THEREOF” (CYTOSITE BIOPHARMA INC., priority 2021, published 2026).
